According to patent publication EP4480943A1, “NEW CLASS OF LIPIDS FOR DELIVERING ACTIVE INGREDIENTS INTO CELLS” (Oz Biosciences, priority 2023, dated 2024):

Legend:
[1] = Encapsulation efficiency / loaded nucleic acid by SyBr Gold fluorescence after Triton X-100 disruption; assay type: physicochemical
Procedure: (§1) The size and charge of the collected LNPs are determined using DLS (Malvern Instruments NanoZS) by dissolving 50 µL of the collected solution in 950 µL of MilliQ water. Then, formed LNPs are destabilized by adding 1% v/v of Triton X-100 and incubate at 30°C for 1h and vortexing. After disruption of the formulation, a 1/100 solution of SyBr™Gold in water is prepared, and 0.5µL of it added to 49.5µL of the resulting mixture that includes Triton X-100. The SyBr™Gold is also added the same way to 49.5µL of a solution that contains non-disrupted LNPs, and to 49.5µL of the mRNA mother solution. Fluorescence of each sample is then read after 30 min incubation at RT using a Victor (Perkin Elmer) fluorimeter (excitation: 495nm; emission: 537nm ;). The encapsulation efficiency (ee(%)) is easily obtained from these fluorescence measurements using the formula below: ee (%) = ((Fluo_LNP1v%triton−Fluo_LNP))/(Fluo_RNAstock solution) × 100 [formula]

[2] = Size and charge of LNPs by DLS (Malvern NanoZS); assay type: physicochemical
Procedure: Thin layer chromatographies (TLC) are carried out on aluminium plates covered with silica gel 60 Fasa (Merck). […] The synthesized products are purified on chromatography columns on silica. The flash chromatography separations are carried out on silica gel 60 (230-400 mesh ASTM) (Merck). Particle size and zeta potential measurements: The mean hydrodynamic particle size and charge measurements were performed using Dynamic Light Scattering (DLS) and Laser Doppler Velocimetry (LDV), respectively, using Malvern Nano ZS instrument and DTS software (Malvern Instruments, UK) in a water of Grade 2. Various amounts of cationic poloxamers were diluted in 100 µl of water and mixed with an equal volume of the same water containing DNA. The measurements were carried out in automatic mode and the results are presented as mean +/- SEM, n= 3. Each mean represents the average value of 30 measurements.
as §1

F-Luc mRNA expression = assay: In vivo transfection of F-Luc mRNA using LNPs, bioluminescence (IVIS imaging); conditions: nude mice, i.p.
Source text: Lipids I, VI and XIV have been formulated into LNPs following the molar composition depicted before (Table 1). 5-methoxyuridine-modified mRNA encoding for Firefly Luciferase (OZ Biosciences, Cat: MRNA16-1000) has been entrapped into the LNP. […] Table 3: Main physical properties of mRNA(F-Luc) LNPs based on tunable lipids I, VI, XIV, and cationic lipid DOTAP
Overall, all LNPs formulations display consistent physico-chemical properties, controlled and reproducible size, charge, polydispersity and encapsulation rate to be used in small animals. A dose equivalent to 10 µg of mRNA has been injected i.p. (intra-peritoneally) in nude mice using three different LNPs. Tunable lipids I and XIV and DOTAP-based LNPs have been selected. Bioluminescence has been monitored over time using IVIS imaging system. […] Indeed 3h post injection, luminescence could be observed in all animals at different proportions (Figure 50). Specifically, F-Luc mRNA expression was higher in mice that received LNPs based on tunable lipids, whereas expression was much lower when DOTAP is used.

firefly luciferase = assay: Biodistribution study of Luciferase mRNA LNPs, RT-PCR of organs; assay type: in vivo; conditions: nude mice, i.p., 10µg RNA dose, RT-PCR 6 hours after injection
Procedure: Biodistribution study involving tunable lipids-based LNPs (lipids I, VI, and XIV) has also been conducted in nude mice that were injected i.p. with Luciferase mRNA formulated into 3 different LNPs formulations at 10µg RNA dose to evaluate the nucleic acid delivery into various organs. The liver, lung, kidney and spleen were collected and analysed through RT-PCR 6 hours after injection. As observed previously, tunable lipids-based LNPs are appropriately efficient to allow the observation and quantitation of Luciferase protein in quantity 6 hours after i.p. injection.

ovalbumin (OVA) antigen = assay: In vivo immunization with OVA mRNA LNPs, ELISA and Elispot; conditions: C57BL6J mice, s.c. prime boost (D0-14), 10µg mRNA
Source text: In this context, the emergence of vaccine-based LNPs represents a clear opportunity to reach pathologies impossible to fight with more classical vaccine approach. The tunable lipid presented in this document could envisioned as potent pillar for future nucleic acid-based vaccine, due to their ground-breaking features in term of efficiency and safe character. Thus, LNPs based on tunable lipids I and XIV have been formulated to encapsulate unmodified mRNA coding for the ovalbumin (OVA) antigen (OZ Biosciences, Cat: MRNA42-1000) and their physico-chemical properties determined (Table 4). Table 4: Main physical properties of mRNA(OVA) LNPs based on tunable lipids I and XIV.
C57BL6J mice received a prime boost (D0-14) immunizations of OVA antigen delivered by mRNA-based LNPs or by recombinant protein (alone or adjuvanted with aluminium-based adjuvant). To characterize the immuno-phenotyping of the mice, the sera and splenocytes were collected at different time (D0, D14, D21, D28) and analysed by ELISA and Elispot. The mice were immunized by s.c (sub-cutaneous) route with 100µL per injection at 10µg OVA subunit and 10µg mRNA doses. Results are depicted in figures 51 and 52, mRNA-OVA LNP formulations are efficient at priming a strong humoral response upon sub-cutaneous prime boost injection (D0-14). Indeed, a strong antibody response was measured after prime boost immunization. […]

[3] = mRNA(GFP) LNPs, total lipid 3.75 mM, N/P 6
[4] = DNA pVectOZ (eGFP) LNPs, total lipid 3.91 mM, N/P 6.6
[5] = DNA pVectOZ(Ppt) LNPs, total lipid 4 mM, N/P 10
[6] = mRNA(F-Luc) LNPs, total lipid 5 mM, N/P 6
[7] = mRNA(OVA) LNPs, total lipid 5 mM, N/P 6
[8] = DNA pVectOZ (F-Luc) LNPs, total lipid 4.6 mM, N/P 12
[9] = NTsiRNA-Cy5 LNPs, DiO Label N, total lipid 4.74 mM, N/P 6
[10] = NTsiRNA-Cy5 LNPs, DiO Label Y, total lipid 4.74 mM, N/P 6

SMILES: CCCCCCCC/C=C\CCCCCCCC(=O)NCCCC(NC(=O)CCCCCCC/C=C\CCCCCCCC)C(=O)NCCCn1ccnc1 (centres unmarked) [XV]
- Encapsulation Efficiency [1, 3]: 78.3%
- Loaded RNA [1, 3]: 78.3 ng/µL

SMILES: CCCCCCCC/C=C\CCCCCCCCNC(=O)CCC(NC(=O)CN(C)C)C(=O)NCCCCCCCC/C=C\CCCCCCCC (centres unmarked) [I]
- PDI [2, 4]: 0.044
- Size [2, 4]: 158.9 nm
- Zeta [2, 4]: +4.61 mV
- PDI [2, 5]: 0.079
- Size [2, 5]: 173 nm
- Zeta [2, 5]: +14.3 mV
- PDI [2, 6]: 0.09
- Size [2, 6]: 88 nm
- Zeta [2, 6]: -7.3 mV
- Zeta [2, 3]: -9.3 mV
- PDI [2, 7]: 0.153
- Size [2, 7]: 111.4 nm
- Zeta [2, 7]: -9.01 mV
- Encapsulation Efficiency [1, 4]: 83%
- Loaded DNA [1, 4]: 0.125 ng/µL
- Encapsulation Efficiency [1, 5]: 82%
- Loaded DNA [1, 5]: 0.125 ng/µL
- Encapsulation Efficiency [1, 6]: 97.5%
- Loaded RNA [1, 6]: 195 ng/µL
- Encapsulation Efficiency [1, 3]: 94.6%
- Loaded RNA [1, 3]: 94.6 ng/µL
- Encapsulation Efficiency [1, 7]: 98.1%
- Loaded RNA [1, 7]: 98.1 ng/µL
- time of maximum bioluminescence signal post injection (F-Luc mRNA expression; 10 µg mRNA): 6 h
- overall luminescence signal (kinetics) (F-Luc mRNA expression; 10 µg mRNA, over 25h): highest overall luminescence signal
- Luciferase gene expression in lung (firefly luciferase): high protein expression rate
- Luciferase gene expression in spleen (firefly luciferase): high protein expression rate
- immune response (initial response of IgG2c) (ovalbumin (OVA) antigen): efficient in generating an immune response

SMILES: CCCCCCC/C=C\CCCCCCCCNC(=O)CCC(NC(=O)CCCN(C)C)C(=O)NCCCCCCCC/C=C\CCCCCCCC (centres unmarked) [II]
- PDI [2, 3]: 0.2
- Size [2, 3]: 113 nm
- Zeta [2, 3]: 5.57 mV
- Encapsulation Efficiency [1, 3]: 98.8%
- Loaded RNA [1, 3]: 98.8 ng/µL

SMILES: CCCCC/C=C\C/C=C\CCCCCCCCOC(=O)CCC(NC(=O)CN(C)C)C(=O)OCCCCCCCC/C=C\C/C=C\CCCCC (centres unmarked) [X]
- PDI [2, 3]: 0.109
- Size [2, 3]: 141 nm
- Zeta [2, 3]: +11.6 mV
- Encapsulation Efficiency [1, 3]: 83.6%
- Loaded RNA [1, 3]: 83.6 ng/µL

SMILES: CCCCCCC/C=C\CCCCCCCCNC(=O)CCC(NC(=O)OCCN(CC)CC)C(=O)NCCCCCCCC/C=C\CCCCCCCC (centres unmarked) [V]
- Encapsulation Efficiency [1, 3]: 89%
- Loaded RNA [1, 3]: 89 ng/µL

SMILES: CCCCCCCC/C=C\CCCCCCCC(=O)OCC(C[N+](C)(C)C)OC(=O)CCCCCCC/C=C\CCCCCCCC (centres unmarked) [DOTAP, I ,2-dioleoy-3-tri-methylarnmonium propane, reference compound]
- PDI [2, 6]: 0.23
- Size [2, 6]: 96 nm
- Zeta [2, 6]: +17 mV
- Encapsulation Efficiency [1, 6]: 91.5%
- Loaded RNA [1, 6]: 183 ng/µL
- F-Luc mRNA expression (bioluminescence) (F-Luc mRNA expression; 10 µg of mRNA, 3h post injection): much lower

SMILES: CCCCCCCC/C=C\CCCCCCCCNC(=O)CCC(NC(=O)CCC(=O)NCCSSCCNC(=O)CN(C)C)C(=O)NCCCCCCCC/C=C\CCCCCCCC (centres unmarked) [VI]
- PDI [2, 6]: 0.13
- Size [2, 6]: 115 nm
- Zeta [2, 6]: -2.25 mV
- PDI [2, 3]: 0.344
- Size [2, 3]: 117 nm
- Zeta [2, 3]: +0.3 mV
- Encapsulation Efficiency [1, 6]: 94%
- Loaded RNA [1, 6]: 188 ng/µL
- Encapsulation Efficiency [1, 3]: 84%
- Loaded RNA [1, 3]: 84 ng/µL
- Luciferase gene expression in liver (firefly luciferase): rate comparable to those observed in the lungs
- Luciferase gene expression in spleen (firefly luciferase): high delivery

SMILES: CCCCC/C=C\C/C=C\CCCCCCCCOC(=O)CCC(NC(=O)CCCN(C)C)C(=O)OCCCCCCCC/C=C\C/C=C\CCCCC (centres unmarked) [XI]
- PDI [2, 8]: 0.079
- Size [2, 8]: 103 nm
- Zeta [2, 8]: +16.5 mV
- PDI [2, 9]: 0.091
- Size [2, 9]: 116 nm
- Zeta [2, 9]: +18.2 mV
- PDI [2, 10]: 0.073
- Size [2, 10]: 99 nm
- Zeta [2, 10]: +19.9 mV
- polydispersity index ([2]; NTsiRNA-Cy5 LNPs, with or without DiO): below 0.1
- Encapsulation Efficiency [1, 8]: 92%
- Loaded DNA [1, 8]: 94 ng/µL
- Encapsulation Efficiency [1, 9]: >90%
- Loaded siRNA [1, 9]: 0.125 ng/µL
- Encapsulation Efficiency [1, 10]: >90%
- Loaded siRNA [1, 10]: 0.125 ng/µL

SMILES: CCCCC/C=C\C/C=C\CCCCCCCCNC(=O)CCC(NC(=O)CCCN(C)C)C(=O)NCCCCCCCC/C=C\C/C=C\CCCCC (centres unmarked) [XIV]
- PDI [2, 9]: 0.222
- Size [2, 9]: 114 nm
- Zeta [2, 9]: +27 mV
- PDI [2, 10]: 0.198
- Size [2, 10]: 106 nm
- Zeta [2, 10]: -2.46 mV
- PDI [2, 6]: 0.13
- Size [2, 6]: 99 nm
- Zeta [2, 6]: +4.85 mV
- PDI [2, 3]: 0.186
- Size [2, 3]: 115 nm
- PDI [2, 7]: 0.149
- Size [2, 7]: 131.7 nm
- Zeta [2, 7]: -7.9 mV
- Encapsulation Efficiency [1, 9]: >90%
- Loaded siRNA [1, 9]: 0.125 ng/µL
- Encapsulation Efficiency [1, 10]: >90%
- Loaded siRNA [1, 10]: 0.125 ng/µL
- Encapsulation Efficiency [1, 6]: 87.5%
- Loaded RNA [1, 6]: 175 ng/µL
- Encapsulation Efficiency [1, 3]: 91%
- Loaded RNA [1, 3]: 91 ng/µL
- Encapsulation Efficiency [1, 7]: 94%
- Loaded RNA [1, 7]: 94 ng/µL
- time of maximum bioluminescence signal post injection (F-Luc mRNA expression; 10 µg mRNA): 3 h
- Luciferase gene expression in kidney (firefly luciferase): most efficient between the three tested formulation
- Luciferase gene expression in lung (firefly luciferase): highest rate of gene expression
- immune response (initial response of IgG2c) (ovalbumin (OVA) antigen): efficient in generating an immune response
